Source: US20140308733A1, “METHOD FOR INDUCING GERMINATION OF SPORE FORMING BACTERIUM” (CALPIS CO., LTD., priority 2011, published 2014)

Experiments:
Assay in all cases: Germination induction, change of turbidity (630 nm) of spore suspension
Assay type in all cases: cell-based
[1] = tested on: Bacillus amyloliquefaciens (NBRC 3022); details: 300 ppm; for turbidity (630 nm): 37° C., 150 rpm; for germination confirmed by turbidity decrease: up to 180 min
Experimental: (§1) It is possible to determine whether spores have germinated, after measuring an OD 630 value (turbidity at 630 nm) of the liquid culture, based on decrease in the value (Literature: Microbiology, (1950), 4, 3, 330-338). Briefly, bacterial cells after culturing are washed with distilled water and diluted with distilled water to OD 630=1.0, which is then mixed with an equal volume of a germination induction solution, and the turbidity at 630 nm is measured by a UV spectrophotometer at room temperature.
(§2) TS culture media (Difco, Trypticase Soy Broth) were inoculated respectively with 11 strains listed in Table 1 and cultured at 50° C. with respect to Geobacillus stearothermophilus NBRC13737 and Aeribacillus pallidus TK6004 (FERM BP-08597), and at 37° C. with respect to the other 9 strains, until respective colonies were established. Then with respect to each of 11 strains, a loop full of a single colony was scratched by a platinum loop and suspended in 500 μL of sterilized water. In 1000 g of water was dissolved 8.0 g of a nutrient agar culture medium (Difco, Nutrient Broth), followed by high pressure steam sterilization (121° C., 15 min) to prepare a plate medium. The nutrient agar culture medium was smeared with each 100 μL of the suspension and cultured at 37° C. for 3 days.
(§3) Then, bacterial cells were suspended using a platinum loop in 500 μL of sterilized water, and the bacterial suspension was subjected to a heat shock at 65° C. for 35 min. Each 100 μL of the heat-shocked bacterial suspension and a not-heat-shocked bacterial suspension were smeared on the TS culture media respectively and cultured at 50° C. or 37° C. for 1 day. As the results of the cultures, colony formation was confirmed also with respect to the heat-shocked bacterial suspensions, to confirm that spores were formed for all of 11 strains. Further, since the bacteria were not stained by Gram staining, it was reconfirmed that spores were formed.
(§4) After confirming the spore formation, the bacterial cells were collected by a bacteria spreader, suspended in 10 mL of sterilized distilled water, and then centrifuged (8340×g, 4° C., 15 min). The supernatant was removed and thereafter the bacterial cells were washed twice with 10 mL of sterilized water. After washing, the bacterial cells were suspended in 5 mL of sterilized water, and the suspension was filtrated by sterilized Kimwipes. The filtrate was centrifuged (8340×g, 4° C., 15 min) to remove the supernatant, and the rest was adjusted to the turbidity (at 630 nm) of 1.0 with sterilized water.
(§5) After dissolving with stirring using a stirring rod with a propeller, filtration sterilization (0.45 μm filter) was conducted to prepare each 600 ppm-solution.
(§6) Five hundred (500) μL of each solution and 500 μL of each bacterial spore suspension were mixed. […] Defining the time point of mixing as the reaction initiation (0 min), and continuing shaking (150 rpm) at 37° C., the turbidity (630 nm) was measured at 10, 20, 30, 40, 50, 60, 90, 120, and 180 min after the reaction initiation.
(§7) Since the turbidity at 630 nm decreases by germination of spores, it has been known that the turbidity at 630 nm can be used to determine the germination rate.

[2] = tested on: Bacillus coagulans (NBRC 12583); details: 300 ppm; for turbidity (630 nm): 37° C., 150 rpm; for germination confirmed by turbidity decrease: up to 180 min
Experimental: as §1, §2, §3, §4, §5, §6, §7

[3] = tested on: Bacillus coagulans (NBRC 3887); details: 300 ppm; for turbidity (630 nm): 37° C., 150 rpm; for germination confirmed by turbidity decrease: up to 180 min
Experimental: as §1, §2, §3, §4, §5, §6, §7

[4] = tested on: Bacillus subtilis sp spizizenii (NBRC 101239); details: 300 ppm; for turbidity (630 nm): 37° C., 150 rpm
Experimental: as §1, §2, §3, §4, §5, §6, §7

[5] = 0 min after reaction initiation
[6] = 10 min after reaction initiation
[7] = 20 min after reaction initiation
[8] = 30 min after reaction initiation
[9] = 40 min after reaction initiation
[10] = 50 min after reaction initiation
[11] = 60 min after reaction initiation
[12] = 90 min after reaction initiation
[13] = 120 min after reaction initiation
[14] = 180 min after reaction initiation

Structure (SMILES): COc1cc(/C=C/C(=O)O)ccc1O [Ferulic acid, ferulic acid]
- turbidity (630 nm) [1, 5]: 0.522
- turbidity (630 nm) [1, 6]: 0.447
- turbidity (630 nm) [1, 7]: 0.400
- turbidity (630 nm) [1, 8]: 0.328
- turbidity (630 nm) [1, 9]: 0.234
- turbidity (630 nm) [1, 10]: 0.192
- turbidity (630 nm) [1, 11]: 0.133
- turbidity (630 nm) [1, 12]: 0.094
- turbidity (630 nm) [1, 13]: 0.067
- turbidity (630 nm) [1, 14]: 0.030
- germination confirmed by turbidity decrease [1]: the turbidity decreased
- turbidity (630 nm) [2, 5]: 0.558
- turbidity (630 nm) [2, 6]: 0.520
- turbidity (630 nm) [2, 7]: 0.518
- turbidity (630 nm) [2, 8]: 0.510
- turbidity (630 nm) [2, 9]: 0.460
- turbidity (630 nm) [2, 10]: 0.392
- turbidity (630 nm) [2, 11]: 0.350
- turbidity (630 nm) [2, 12]: 0.266
- turbidity (630 nm) [2, 13]: 0.217
- turbidity (630 nm) [2, 14]: 0.198
- germination confirmed by turbidity decrease [2]: the turbidity decreased
- turbidity (630 nm) [3, 5]: 0.566
- turbidity (630 nm) [3, 6]: 0.531
- turbidity (630 nm) [3, 7]: 0.500
- turbidity (630 nm) [3, 8]: 0.454
- turbidity (630 nm) [3, 9]: 0.423
- turbidity (630 nm) [3, 10]: 0.372
- turbidity (630 nm) [3, 11]: 0.340
- turbidity (630 nm) [3, 12]: 0.300
- turbidity (630 nm) [3, 13]: 0.247
- turbidity (630 nm) [3, 14]: 0.209
- germination confirmed by turbidity decrease [3]: the turbidity decreased
- turbidity (630 nm) [4, 5]: 0.534
- turbidity (630 nm) [4, 6]: 0.512
- turbidity (630 nm) [4, 7]: 0.495
- turbidity (630 nm) [4, 8]: 0.471
- turbidity (630 nm) [4, 9]: 0.458
- turbidity (630 nm) [4, 10]: 0.439
- turbidity (630 nm) [4, 11]: 0.414
- turbidity (630 nm) [4, 12]: 0.362
- turbidity (630 nm) [4, 13]: 0.306
- turbidity (630 nm) [4, 14]: 0.224
- germination confirmed by turbidity decrease ([4]; up to 180 min): germination was confirmed

Structure (SMILES): COc1cc(C(=O)O)ccc1O [Vanillic acid, vanillic acid]
- turbidity (630 nm) [1, 5]: 0.548
- turbidity (630 nm) [1, 6]: 0.402
- turbidity (630 nm) [1, 7]: 0.295
- turbidity (630 nm) [1, 8]: 0.221
- turbidity (630 nm) [1, 9]: 0.150
- turbidity (630 nm) [1, 10]: 0.100
- turbidity (630 nm) [1, 11]: 0.076
- turbidity (630 nm) [1, 12]: 0.047
- turbidity (630 nm) [1, 13]: 0.021
- turbidity (630 nm) [1, 14]: 0.018
- germination confirmed by turbidity decrease [1]: the turbidity decreased
- turbidity (630 nm) [2, 5]: 0.590
- turbidity (630 nm) [2, 6]: 0.528
- turbidity (630 nm) [2, 7]: 0.490
- turbidity (630 nm) [2, 8]: 0.430
- turbidity (630 nm) [2, 9]: 0.390
- turbidity (630 nm) [2, 10]: 0.335
- turbidity (630 nm) [2, 11]: 0.290
- turbidity (630 nm) [2, 12]: 0.225
- turbidity (630 nm) [2, 13]: 0.180
- turbidity (630 nm) [2, 14]: 0.137
- germination confirmed by turbidity decrease [2]: the turbidity decreased
- turbidity (630 nm) [3, 5]: 0.559
- turbidity (630 nm) [3, 6]: 0.550
- turbidity (630 nm) [3, 7]: 0.473
- turbidity (630 nm) [3, 8]: 0.411
- turbidity (630 nm) [3, 9]: 0.364
- turbidity (630 nm) [3, 10]: 0.321
- turbidity (630 nm) [3, 11]: 0.295
- turbidity (630 nm) [3, 12]: 0.230
- turbidity (630 nm) [3, 13]: 0.182
- turbidity (630 nm) [3, 14]: 0.130
- germination confirmed by turbidity decrease [3]: the turbidity decreased
- turbidity (630 nm) [4, 5]: 0.529
- turbidity (630 nm) [4, 6]: 0.520
- turbidity (630 nm) [4, 7]: 0.516
- turbidity (630 nm) [4, 8]: 0.512
- turbidity (630 nm) [4, 9]: 0.510
- turbidity (630 nm) [4, 10]: 0.510
- turbidity (630 nm) [4, 11]: 0.502
- turbidity (630 nm) [4, 12]: 0.488
- turbidity (630 nm) [4, 13]: 0.479
- turbidity (630 nm) [4, 14]: 0.474
